According to patent US9175003B2, “Substituted azoanthracene derivatives and intermediates for preparation thereof” (TransTech Pharma, LLC, priority 2009, dated 2015):

Target: human GLP-1 receptor (Homo sapiens (Human), UniProt P43220)
Conditions: read-out: Mean EC50; cAMP, HTRF detection, 30 min at 37° C., HEK-293 cells expressing cloned human GLP-1 receptor
Experimental: Following overnight incubation of cells, media was removed, and compounds (at concentrations ranging from 0.0001 to 100 μM) were added to monolayer cells in Iscove's modified dulbecco's medium (IMDM), 100 μM RO 20-1724 PDE inhibitor, 0.1% BSA, 2% DMSO in a final volume of 100 μL, and incubated for 30 min at 37° C. […] Alternatively, cells were harvested and combined with compounds in suspension using the buffer and protocol described above. cAMP was quantified using a homogenous time-resolved fluorescence detection system (cAMP dynamic, CIS bio International).

Chain of human GLP-1 receptor (P43220 24-463): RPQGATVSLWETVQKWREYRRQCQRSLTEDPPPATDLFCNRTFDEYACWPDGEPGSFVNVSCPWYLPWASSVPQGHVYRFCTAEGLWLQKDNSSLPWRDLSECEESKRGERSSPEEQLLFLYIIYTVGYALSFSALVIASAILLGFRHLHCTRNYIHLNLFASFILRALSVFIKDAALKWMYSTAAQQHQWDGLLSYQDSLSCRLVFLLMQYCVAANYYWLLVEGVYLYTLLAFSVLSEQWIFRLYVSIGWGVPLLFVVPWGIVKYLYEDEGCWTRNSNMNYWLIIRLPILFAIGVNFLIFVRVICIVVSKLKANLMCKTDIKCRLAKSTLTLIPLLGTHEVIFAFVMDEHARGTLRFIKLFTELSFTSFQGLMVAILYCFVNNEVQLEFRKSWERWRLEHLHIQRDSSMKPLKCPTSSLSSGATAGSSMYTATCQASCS

SMILES	EC50
Cc1cccc(C(=O)N2Cc3cc4c(cc3C[C@H]2C(=O)N[C@@H](Cc2ccc(-c3ccnc(C)c3C)cc2)C(=O)O)OC[C@H](c2ccc(OCc3ccc(Cl)c(Cl)c3)cc2)O4)c1 [Example 157, (S)-2-{[(3S,8S)-3-[4-(3,4-Dichloro-benzyloxy)-phenyl]-7-(3-methyl-benzoyl)-2,3,6,7,8,9-hexahydro-[1,4]dioxino[2,3-g]isoquinoline-8-carbonyl]-amino}-3-[4-(2,3-dimethyl-pyridin-4-yl)-phenyl]-propionic acid]	34 nM
CC[C@@H](c1ccccc1)N1Cc2cc3c(cc2C[C@H]1C(=O)N[C@@H](Cc1ccc(-c2ccnc(O)c2)cc1)C(=O)O)OC[C@H](c1ccc(OCc2ccc(Cl)c(Cl)c2)cc1)O3 [Example 195, (S)-2-{[(3S,8S)-3-[4-(3,4-Dichloro-benzyloxy)-phenyl]-7-((S)-1-phenyl-propyl)-2,3,6,7,8,9-hexahydro-[1,4]dioxino[2,3-g]isoquinoline-8-carbonyl]-amino}-3-[4-(2-hydroxy-pyridin-4-yl)-phenyl]-propionic acid]	138 nM
Cc1nc(NCC2CCC2)sc1S(=O)(=O)N1Cc2cc3c(cc2C[C@H]1C(=O)N[C@@H](Cc1ccc(-c2ccc(C#N)cc2)cc1)C(=O)O)OCC(c1ccc(OCc2ccc(Cl)c(Cl)c2)cc1)O3 (stereo in doubt) [Example 105, (S)-3-(4′-Cyano-biphenyl-4-yl)-2-({(S)-7-[2-(cyclobutylmethyl-amino)-4-methyl-thiazole-5-sulfonyl]-3-[4-(3,4-dichloro-benzyloxy)-phenyl]-2,3,6,7,8,9-hexahydro-[1,4]dioxino[2,3-g]isoquinoline-8-carbonyl}-amino)-propionic acid]	321 nM
Cc1nccc(-c2ccc(C[C@H](NC(=O)[C@@H]3Cc4cc5c(cc4CN3C(=O)NC3CCCC3)O[C@@H](c3ccc(OCc4ccc(Cl)c(Cl)c4)cc3)CO5)C(=O)O)cc2)c1C [Example 248, (S)-2-({(3S,8S)-7-Cyclopentylcarbamoyl-3-[4-(3,4-dichloro-benzyloxy)-phenyl]-2,3,6,7,8,9-hexahydro-[1,4]dioxino[2,3-g]isoquinoline-8-carbonyl}-amino)-3-[4-(2,3-dimethyl-pyridin-4-yl)-phenyl]-propionic acid]	187 nM
N#Cc1ccc(-c2ccc(C[C@H](NC(=O)[C@@H]3Cc4cc5c(cc4CN3S(=O)(=O)c3ccc(-c4csc(N)n4)cc3)OC(c3ccc(OCc4ccc(Cl)c(Cl)c4)cc3)CO5)C(=O)O)cc2)cc1 (stereo in doubt) [Example 139, (S)-2-({(S)-7-[4-(2-Amino-thiazol-4-yl)-benzenesulfonyl]-3-[4-(3,4-dichloro-benzyloxy)-phenyl]-2,3,6,7,8,9-hexahydro-[1,4]dioxino[2,3-g]isoquinoline-8-carbonyl}-amino)-3-(4′-cyano-biphenyl-4-yl)-propionic acid]	85 nM
Cc1nc(C)c(S(=O)(=O)N2Cc3cc4c(cc3C[C@H]2C(=O)N[C@@H](Cc2ccc(-c3ccc(C#N)cc3)cc2)C(=O)O)OCC(c2ccc(OCc3ccc(Cl)c(Cl)c3)cc2)O4)s1 (stereo in doubt) [Example 130, (S)-3-(4′-Cyano-biphenyl-4-yl)-2-{[(S)-3-[4-(3,4-dichloro-benzyloxy)-phenyl]-7-(2,4-dimethyl-thiazole-5-sulfonyl)-2,3,6,7,8,9-hexahydro-[1,4]dioxino[2,3-g]isoquinoline-8-carbonyl]-amino}-propionic acid]	111 nM
CC[C@@H](c1ccccc1)N1Cc2cc3c(cc2C[C@H]1C(=O)N[C@@H](Cc1ccc(-c2ccnc(CO)c2)cc1)C(=O)O)OC[C@H](c1ccc(OCc2ccc(Cl)c(Cl)c2)cc1)O3 [Example 206, (S)-2-{[(3S,8S)-3-[4-(3,4-Dichloro-benzyloxy)-phenyl]-7-((S)-1-phenyl-propyl)-2,3,6,7,8,9-hexahydro-[1,4]dioxino[2,3-g]isoquinoline-8-carbonyl]-amino}-3-[4-(2-hydroxymethyl-pyridin-4-yl)-phenyl]-propionic acid]	61 nM
CC(=O)N1Cc2cc3c(cc2C[C@H]1C(=O)N[C@@H](Cc1ccc(-c2ccnc(C)c2C)cc1)C(=O)O)OC[C@H](c1ccc(OCc2ccc(Cl)c(Cl)c2)cc1)O3 [Example 150, (S)-2-({(3S,8S)-7-Acetyl-3-[4-(3,4-dichloro-benzyloxy)-phenyl]-2,3,6,7,8,9-hexahydro-[1,4]dioxino[2,3-g]isoquinoline-8-carbonyl}-amino)-3-[4-(2,3-dimethyl-pyridin-4-yl)-phenyl]-propionic acid]	372 nM
CNc1nc(C)c(S(=O)(=O)N2Cc3cc4c(cc3C[C@H]2C(=O)N[C@@H](Cc2ccc(-c3ccc(C#N)cc3)cc2)C(=O)O)OC[C@H](c2ccc(OCc3ccc(Cl)c(Cl)c3)cc2)O4)s1 [Example 85, (S)-3-(4′-Cyano-biphenyl-4-yl)-2-{[(3S,8S)-3-[4-(3,4-dichloro-benzyloxy)-phenyl]-7-(4-methyl-2-methylamino-thiazole-5-sulfonyl)-2,3,6,7,8,9-hexahydro-[1,4]dioxino[2,3-g]isoquinoline-8-carbonyl]-amino}-propionic acid]	263 nM

Next, values leading:

EC50	SMILES
74 nM	Cc1nccc(-c2ccc(C[C@H](NC(=O)[C@@H]3Cc4cc5c(cc4CN3C(=O)N[C@H](C)c3ccccc3)O[C@@H](c3ccc(OCc4cc(Cl)cc(Cl)c4)cc3)CO5)C(=O)O)cc2)c1C [Example 393, (S)-2-{[(3S,8S)-3-[4-(3,5-dichloro-benzyloxy)-phenyl]-7-((R)-1-phenyl-ethylcarbamoyl)-2,3,6,7,8,9-hexahydro-[1,4]dioxino[2,3-g]isoquinoline-8-carbonyl]-amino}-3-[4-(2,3-dimethyl-pyridin-4-yl)-phenyl]-propionic acid]
200 nM	Cc1nccc(-c2ccc(C[C@H](NC(=O)[C@@H]3Cc4cc5c(cc4CN3C(=O)c3ccccc3)O[C@@H](c3ccc(OCC4CCCC4)cc3)CO5)C(=O)O)cc2)c1C [Example 305, (S)-2-{[(3S,8S)-7-Benzoyl-3-(4-cyclopentylmethoxy-phenyl)-2,3,6,7,8,9-hexahydro-[1,4]dioxino[2,3-g]isoquinoline-8-carbonyl]-amino}-3-[4-(2,3-dimethyl-pyridin-4-yl)-phenyl]-propionic acid]
263 nM	CCCCOC(=O)N1Cc2cc3c(cc2C[C@H]1C(=O)N[C@@H](Cc1ccc(Oc2ccnc(C)c2C)cc1)C(=O)O)OC[C@H](c1ccc(OCc2ccc(Cl)c(Cl)c2)cc1)O3 [Example 299, (3S,8S)-8-{(S)-1-Carboxy-2-[4-(2,3-dimethyl-pyridin-4-yloxy)-phenyl]-ethylcarbamoyl}-3-[4-(3,4-dichloro-benzyloxy)-phenyl]-2,3,8,9-tetrahydro-6H-[1,4]dioxino[2,3-g]isoquinoline-7-carboxylic acid butyl ester]
137 nM	Cc1nccc(-c2ccc(C[C@H](NC(=O)[C@@H]3Cc4cc5c(cc4CN3C(=O)OCC(C)C)O[C@@H](c3ccc(OCc4ccc(Cl)c(Cl)c4)cc3)CO5)C(=O)O)cc2)c1C [Example 295, (3S,8S)-8-{(S)-1-Carboxy-2-[4-(2,3-dimethyl-pyridin-4-yl)-phenyl]-ethylcarbamoyl}-3-[4-(3,4-dichloro-benzyloxy)-phenyl]-2,3,8,9-tetrahydro-6H-[1,4]dioxino[2,3-g]isoquinoline-7-carboxylic acid isobutyl ester]
90 nM	CC[C@@H](c1ccccc1)N1Cc2cc3c(cc2C[C@H]1C(=O)N[C@@H](Cc1ccc(-c2ccnc(C)c2C)cc1)C(=O)O)OC[C@H](c1cccc(OCc2ccc(Cl)c(Cl)c2)c1)O3 [Example 419, (S)-2-{[(3S,8S)-3-[3-(3,4-Dichloro-benzyloxy)-phenyl]-7-((S)-1-phenyl-propyl)-2,3,6,7,8,9-hexahydro-[1,4]dioxino[2,3-g]isoquinoline-8-carbonyl]-amino}-3-[4-(2,3-dimethyl-pyridin-4-yl)-phenyl]-propionic acid]
99 nM	Cc1nccc(-c2ccc(C[C@H](NC(=O)[C@@H]3Cc4cc5c(cc4CN3C(=O)NC3CCCCC3)O[C@@H](c3ccc(OCc4ccc(Cl)c(Cl)c4)cc3)CO5)C(=O)O)cc2)c1C [Example 252, (S)-2-({(3S,8S)-7-Cyclohexylcarbamoyl-3-[4-(3,4-dichloro-benzyloxy)-phenyl]-2,3,6,7,8,9-hexahydro-[1,4]dioxino[2,3-g]isoquinoline-8-carbonyl}-amino)-3-[4-(2,3-dimethyl-pyridin-4-yl)-phenyl]-propionic acid]
34 nM	Cc1nc(C(=O)N2Cc3cc4c(cc3C[C@H]2C(=O)N[C@@H](Cc2ccc(-c3ccnc(C)c3C)cc2)C(=O)O)OC[C@H](c2ccc(OCCc3ccc(Cl)c(Cl)c3)cc2)O4)c(C)o1 [Example 387, (S)-2-{[(3S,8S)-3-{4-[2-(3,4-Dichloro-phenyl)-ethoxy]-phenyl}-7-(2,5-dimethyl-oxazole-4-carbonyl)-2,3,6,7,8,9-hexahydro-[1,4]dioxino[2,3-g]isoquinoline-8-carbonyl]-amino}-3-[4-(2,3-dimethyl-pyridin-4-yl)-phenyl]-propionic acid]
269 nM	Cc1nc(C(=O)N2Cc3cc4c(cc3C[C@H]2C(=O)N[C@@H](Cc2ccc(-c3ccnc(C)c3C)cc2)C(=O)O)OC[C@H](c2ccc(O[C@H]3CC[C@@H](C(C)(C)C)CC3)cc2)O4)c(C)o1 [Example 386, (S)-2-{[(3S,8S)-3-[4-(cis-4-tert-Butyl-cyclohexyloxy)-phenyl]-7-(2,5-dimethyl-oxazole-4-carbonyl)-2,3,6,7,8,9-hexahydro-[1,4]dioxino[2,3-g]isoquinoline-8-carbonyl]-amino}-3-[4-(2,3-dimethyl-pyridin-4-yl)-phenyl]-propionic acid]
24 nM	Cc1nccc(-c2ccc(C[C@H](NC(=O)[C@@H]3Cc4cc5c(cc4CN3C(=O)c3cccc(F)c3)O[C@@H](c3ccc(OCc4ccc(Cl)c(Cl)c4)cc3)CO5)C(=O)O)cc2)c1C [Example 409, (S)-2-{[(3S,8S)-3-[4-(3,4-Dichloro-benzyloxy)-phenyl]-7-(3-fluoro-benzoyl)-2,3,6,7,8,9-hexahydro-[1,4]dioxino[2,3-g]isoquinoline-8-carbonyl]-amino}-3-[4-(2,3-dimethyl-pyridin-4-yl)-phenyl]-propionic acid]
